One data set concerns the target T1, CDK2/cyclin A (Homo sapiens, UniProt P24941).
T1 construct: made in house; host or cells: CDK2: insect cells (baculovirus); cyclin A: E. coli
Description: Inhibition of CDK2/cyclin A retinoblastoma kinase activity (Ki; % inhibition). In kind it is biochemical. Particulars: apparent Ki, CDK2/cyclin A, Rb substrate. The method, boiled down:
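Apparent Ki values came from fitting concentration-dependent activity data to competitive (or competitive tight-binding) models, and % inhibition from single 30 nM screens of library compounds. Activity was measured as ³²P/³³P incorporation from 25 μM ATP into an Rb substrate by 10 or 19 nM CDK2/delta cyclin A at 30 °C over 60–75 min, pH 7.4.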

The target in a further data set is T2, human CDK4/cyclin D3 (Homo sapiens, UniProt P11802).
T2 construct: made in house; host or cells: insect cells co-infected with baculovirus vectors
The data set is described as follows: Inhibition of CDK4/cyclin D retinoblastoma kinase activity (Ki; % inhibition). Particulars: apparent Ki, CDK4/cyclin D3, Rb substrate. It is filed as biochemical. The method, boiled down: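 Radiometric filter-binding read-out: Rb residues 386-928 phosphorylated by 5 nM CDK4/cyclin D3(1-264) from baculovirus-infected insect cells, 25 μM ATP, HEPES pH 7.4, 30 °C. Run 20 min, or 60 min for tight-binding inhibitors. Screening at 30 nM theoretical compound; apparent Ki by competitive-inhibition fitting.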

For a further data set, the system named is HCT-116 cell line. Description: Inhibition of cell growth, MTT tetrazolium salt assay. It is filed as cell-based. Particulars: Homo sapiens, HCT-116, 120 h; MTT, three to five days. The method, boiled down:
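HCT-116 cells in McCoy's 5A were dosed 4 h after plating with compounds in 0.5% DMSO and grown 3–5 days at 37 °C. Then 0.2 mg/mL MTT was added for 4 h and formazan absorbance read at 540 nm. IC50/IC90 came from semi-log plots against DMSO-only controls.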
(In general: Tetrazolium assays rely on reduction of a dye to a coloured formazan, in cell work by metabolically active cells.)

Data set [1] deals with T3, human CDK1 (cdc2)/cyclin B (Homo sapiens, UniProt P06493).
T3 construct: purchased New England Biolabs (Beverly, Mass.)
Description: Inhibition of CDK1 (cdc2)/cyclin B histone H1 kinase activity. Particulars: histone H1 substrate. It is filed as biochemical. Here is the method:
Cyclin-dependent kinase activity was measured by quantifying the enzyme-catalyzed, time-dependent incorporation of radioactive phosphate from [^32P]ATP or [^33P]ATP into a protein substrate. Unless noted otherwise, assays were performed in 96-well plates in a total volume of 50 μL, in the presence of 10 mM HEPES (N-[2-hydroxyethyl]piperazine-N′-[2-ethanesulfonic acid]) (pH 7.4), 10 mM MgCl2, 25 μM adenosine triphosphate (ATP), 1 mg/mL ovalbumin, 5 μg/mL leupeptin, 1 mM dithiothreitol, 10 mM β-glycerophosphate, 0.1 mM sodium vanadate, 1 mM sodium fluoride, 2.5 mM ethylene glycol-bis(β-aminoethyl ether)-N,N,N′N′-tetraacetic acid (EGTA), 2% (v/v) dimethylsulfoxide, and 0.03-0.4 μCi [^32/33P]ATP per reaction. Reactions were initiated with enzyme, incubated at 30° C., and terminated after 20 minutes by the addition of ethylenediaminetetraacetic acid (EDTA) to 250 mM. The phosphorylated substrate was then captured on a nitrocellulose or phosphocellulose membrane using a 96-well filtration manifold, and unincorporated radioactivity was removed by repeated washing with 0.85% phosphoric acid. Radioactivity was quantified by exposing the dried membranes to a phosphorimager.
Compounds from combinatorial libraries were screened from 96-well plates for % inhibition of CDK activity at 30 nM theoretical compound concentration. Inhibition was measured relative to control wells that contained all reaction components including 2% (v/v) DMSO but no compound, after subtraction of background radioactivity measured in the absence of enzyme. Apparent Ki values of discrete compounds were measured by assaying enzyme activity in the presence of different inhibitor compound concentrations and subtracting the background radioactivity measured in the absence of enzyme. The kinetic parameters (kcat, Km for ATP) were measured for each enzyme under the usual assay conditions by determining the dependence of initial rates on ATP concentration. Inhibition data were fit to an equation for competitive inhibition using Kaleidagraph (Synergy Software), or were fit to an equation for competitive tight-binding inhibition using the software KineTic (BioKin, Ltd.).
The complex of human CDK1 (cdc2) and cyclin B was purchased from New England Biolabs (Beverly, Mass.). Alternatively, a CDK1/glutathione-S-transferase-cyclin B1 complex was purified using glutathione affinity chromatography from insect cells that had been co-infected with the corresponding baculovirus expression vectors. The assay was executed as described above at 30° C. using 2.5 units of cdc2/cyclin B, 10 μg Histone H1 protein, and 0.1-0.3 μCi [^32/33P]ATP per assay. Phosphorylated histone substrate was captured by microfiltration on a phosphocellulose P81 membrane and quantified using a phosphorimager as described above. Ki values were measured using the described curve-fitting programs.

Data set [2] addresses T4, Phosphorylated FGF receptor kinase (FGFR1 cytosolic domain) (Homo sapiens, UniProt P11362, C488A/C584S/L457V).
T4 construct: FGFR1 tyrosine kinase (amino acids 456-766); made in house; host or cells: Sf9 insect cells (baculovirus)
The data set is described as follows: Inhibition of phosphorylated FGF receptor tyrosine kinase activity (coupled spectrophotometric assay). It is filed as biochemical. Particulars: read-out: P-FGF % Inhibition at 1 μM. Here is the method:
(§1) Cloning, expression and purification of the cytosolic domain of FGFR1 tyrosine kinase (amino acids 456-766) containing three amino acid substitutions (L457V, C488A, and C584S) were conducted as previously described (Mohammadi, M., Schiessinger, J., & Hubbard, S. R. Cell, 86, (1996) 577-587). This domain was expressed in Sf9 insect cells using a baculovirus expression vector, and protein was purified using conventional techniques. The LCK tyrosine kinase was expressed in insect cells as an N-terminal deletion starting from amino acid 223 to the end of the protein at amino acid 509. The N-terminus of the protein also had two amino acid substitutions, P223M and C224D. Kinases were purified using conventional chromatographic methods.
(§2) Tyrosine kinase activity was measured using a coupled, continuous spectrophotometric assay, in which production of phosphorylated poly(Glu,Tyr; 4:1) substrate and ADP is coupled to the pyruvate kinase-catalyzed transfer of a phosphate from phosphoenolpyruvate to ADP, with generation of pyruvate and regeneration of ATP. Pyruvate production is in turn coupled to the lactate dehydrogenase-catalyzed reduction of pyruvate to form lactate, with concomitant conversion of NADH to NAD^+. Loss of NADH is monitored by measuring absorbance at 340 nm (see e.g., Technikova-Dobrova et al., “Spectrophotometric Determination of Functional Characteristics of Protein Kinases with Coupled Enzymatic Assay,” FEBS Letters, 292 (1991), pp. 69-72). Enzyme activity was measured in the presence of 200 mM HEPES (pH 7.5), 2 mM phosphoenolpyruvate, 0.3 mM NADH, 20 mM MgCl2, 100 μM ATP, 5 mM DTT, 5.1 or 25 mM poly (Glu,Tyr) 4:1 for P-FGF or P-LCK assays, respectively, and 15 units/mL each of pyruvate kinase and lactate dehydrogenase. Phosphorylated FGF receptor kinase was present at 100 nM and phosphorylated LCK kinase was present at 50 nM. Assays were performed under initial rate conditions at 37° C., and rates were corrected for any background rate measured in the absence of enzyme. Percent inhibition was calculated relative to control enzyme assayed in the presence of 2% (v/v) DMSO.

Data set [3] addresses T5, phosphorylated LCK kinase (Homo sapiens, UniProt P06239, C224D/P223M).
T5 construct: starting from amino acid 223 to the end of the protein at amino acid 509; made in house; host or cells: insect cells
Description: Inhibition of phosphorylated LCK tyrosine kinase activity (coupled spectrophotometric assay). Particulars: read-out: P-LCK % Inhibition at 1 μM. It is filed as biochemical. Here is the method: as §1, §2

The structures appear in SMILES notation. Where a name gives a salt, the structure may show the parent alone.

T2 sequence (P11802 whole entry): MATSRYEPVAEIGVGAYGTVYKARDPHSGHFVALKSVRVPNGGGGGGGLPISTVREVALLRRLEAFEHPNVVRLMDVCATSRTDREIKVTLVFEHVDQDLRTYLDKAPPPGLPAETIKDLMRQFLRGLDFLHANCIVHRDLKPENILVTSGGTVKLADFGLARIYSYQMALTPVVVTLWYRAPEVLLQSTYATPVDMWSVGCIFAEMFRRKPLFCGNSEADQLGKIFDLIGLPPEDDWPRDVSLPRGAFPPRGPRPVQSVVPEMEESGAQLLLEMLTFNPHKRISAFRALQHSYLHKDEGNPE
T2 sequence (P30281 1-264 partner limits assumed): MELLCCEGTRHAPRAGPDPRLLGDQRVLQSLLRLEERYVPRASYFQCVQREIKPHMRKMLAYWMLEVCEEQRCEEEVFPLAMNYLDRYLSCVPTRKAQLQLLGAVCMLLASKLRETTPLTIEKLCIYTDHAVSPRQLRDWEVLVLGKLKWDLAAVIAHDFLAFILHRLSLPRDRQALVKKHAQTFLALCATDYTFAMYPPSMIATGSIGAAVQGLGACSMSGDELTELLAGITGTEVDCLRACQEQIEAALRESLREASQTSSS
T3 sequence (P06493 whole entry): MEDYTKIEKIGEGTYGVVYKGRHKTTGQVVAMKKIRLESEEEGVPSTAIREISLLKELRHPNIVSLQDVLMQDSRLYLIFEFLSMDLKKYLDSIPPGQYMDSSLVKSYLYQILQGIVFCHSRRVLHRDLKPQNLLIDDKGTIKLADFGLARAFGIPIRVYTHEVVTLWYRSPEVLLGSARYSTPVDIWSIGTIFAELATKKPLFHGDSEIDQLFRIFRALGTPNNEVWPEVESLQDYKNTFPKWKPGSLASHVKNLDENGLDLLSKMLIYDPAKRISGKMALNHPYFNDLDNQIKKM
T3 sequence (P14635 whole entry partner): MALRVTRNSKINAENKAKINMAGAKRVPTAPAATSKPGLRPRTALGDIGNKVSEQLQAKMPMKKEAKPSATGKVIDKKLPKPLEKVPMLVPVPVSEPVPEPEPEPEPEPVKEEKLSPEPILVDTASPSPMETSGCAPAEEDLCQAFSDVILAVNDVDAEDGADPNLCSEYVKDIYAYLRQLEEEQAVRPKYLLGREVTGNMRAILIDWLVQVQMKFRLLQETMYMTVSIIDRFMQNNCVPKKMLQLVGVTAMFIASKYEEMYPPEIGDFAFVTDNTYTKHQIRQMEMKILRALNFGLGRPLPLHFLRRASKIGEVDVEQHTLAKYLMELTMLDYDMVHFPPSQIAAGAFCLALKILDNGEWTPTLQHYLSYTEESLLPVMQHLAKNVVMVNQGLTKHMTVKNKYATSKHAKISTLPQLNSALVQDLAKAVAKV
T4 sequence (P11362 456-766 L457V/C488A/C584S): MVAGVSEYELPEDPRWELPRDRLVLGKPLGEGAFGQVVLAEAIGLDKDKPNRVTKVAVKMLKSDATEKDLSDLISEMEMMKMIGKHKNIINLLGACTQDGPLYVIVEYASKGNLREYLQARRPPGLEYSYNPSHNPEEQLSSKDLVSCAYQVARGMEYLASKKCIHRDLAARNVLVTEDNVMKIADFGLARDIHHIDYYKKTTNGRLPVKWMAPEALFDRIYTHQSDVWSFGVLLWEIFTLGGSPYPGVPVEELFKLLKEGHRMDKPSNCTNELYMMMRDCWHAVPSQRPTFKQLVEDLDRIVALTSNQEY
T5 sequence (P06239 223-509 P223M/C224D): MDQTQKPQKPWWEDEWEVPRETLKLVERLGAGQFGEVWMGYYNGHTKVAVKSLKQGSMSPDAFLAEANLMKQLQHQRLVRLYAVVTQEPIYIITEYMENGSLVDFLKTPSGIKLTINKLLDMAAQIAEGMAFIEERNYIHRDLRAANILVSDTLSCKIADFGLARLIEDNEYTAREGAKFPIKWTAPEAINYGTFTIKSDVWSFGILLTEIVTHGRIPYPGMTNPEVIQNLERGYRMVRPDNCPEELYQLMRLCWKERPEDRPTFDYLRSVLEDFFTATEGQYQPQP

For `C[C@H](CNC(=O)c1ccc(Nc2nc(N)c(C(=O)c3c(F)cccc3F)s2)cc1)N(C)C` [Example A44, 4-[4-Amino-5-(2,6-difluoro-benzoyl)-thiazol-2-ylamino]-N-(2R-dimethylamino-propyl)-benzamide], the Ki on CDK2/cyclin A turned out to be 0.12 µM; at human CDK4/cyclin D3 it was 0.01 µM; in data set [1], 0.072 µM. In addition, the IC50 (in general, the concentration that inhibits the measured activity by half) in the data set on HCT-116 cell line was 0.13 µM.
For `CN(C)CC(C)(C)NC(=O)c1ccc(Nc2nc(N)c(C(=O)c3c(F)cccc3F)s2)cc1` (as salt: hydrochloride) [Example A61, 4-[4-Amino-5-(2,6-difluoro-benzoyl)-thiazol-2-ylamino]-N-(2-dimethylamino-1,1-dimethyl-ethyl)-benzamide Dihydrochloride], the melting point (as a rule, the temperature, or range, at which the solid turns liquid) is 275 to 290 °C (dec.).
`CC(=O)N(C)c1ccc(NC(=O)c2ccc(Nc3nc(N)c(C(=O)c4c(F)cccc4F)s3)cc2)cc1` [Example A25]: the Ki turned out to be 0.062 µM on CDK2/cyclin A and 0.013 µM at human CDK4/cyclin D3. Moreover, the concentration for half-maximal inhibition (IC50) in the data set on HCT-116 cell line amounted to 0.094 µM. The inhibition at 1 µM in data set [2] and in data set [3] was 0% each time.

Source of the values: patent US6720346B2, “Thiazole benzamide derivatives and pharmaceutical compositions for inhibiting cell proliferation” (Agouron Pharmaceuticals, Inc., priority 2001, dated 2004).
